# Measurements reported in patent US20200370033A1, “BIOLOGICAL ASSEMBLY INCLUDING BIOLOGICAL COMPONENT AND SHIELD” (Regents of the University of Minnesota, priority 2018, published 2020).
# Assays:
# [1] = system: E. coli DH5α expressing homoprotocatechuate 2,3-dioxygenase (2,3-HPCD); type: cell-based; settings: 1% w/v for 20 minutes
# Experimental: A 200 μL aliquot of 500 μM DHPAC in 50 mM PB at pH 7.5 was added to each well and A380 was measured for up to one hour. The data was then fit to a first order reaction model of the form:
# Cp(t)=Cs,0(1−e^−k^r^t) (4)
# Cp is the product concentration, Cs,0 is the initial substrate concentration, and kr is the first order reaction rate constant.
# [2] = detergent micelle; cited from earlier work
# [3] = Detergent and micelle properties; type: physicochemical; settings: for Est. Micelle MW: estimated micelle molecular weight
Substance,change in biocatalytic activity after detergent/surfactant treatment [1],Aggregation Number [2],Est. Micelle MW [3] [kDa],micelle hydrodynamic radii [3] [nm]
polysorbate 85 [Tween 85],modest,60,110,
"polyethylene glycol p-(1,1,3,3-tetramethylbutyl)-phenyl ether [Triton X-100]",modest,140,228,~4
